Measured values published in ChEMBL document CHEMBL1123343, “5-(Halomethyl)-2-pyranones as irreversible inhibitors of alpha-chymotrypsin” (J Med Chem, 1986).

Legend:
Chymotrypsin-C = biological target: T1, Chymotrypsin-C (Homo sapiens, UniProt Q99895); experiment: Compound was tested for inhibition against alpha-chymotrypsin using N-acetyl tyrosine p-nitrophenyl ester; WI=Weak inhibition
T1 sequence (Q99895 whole entry): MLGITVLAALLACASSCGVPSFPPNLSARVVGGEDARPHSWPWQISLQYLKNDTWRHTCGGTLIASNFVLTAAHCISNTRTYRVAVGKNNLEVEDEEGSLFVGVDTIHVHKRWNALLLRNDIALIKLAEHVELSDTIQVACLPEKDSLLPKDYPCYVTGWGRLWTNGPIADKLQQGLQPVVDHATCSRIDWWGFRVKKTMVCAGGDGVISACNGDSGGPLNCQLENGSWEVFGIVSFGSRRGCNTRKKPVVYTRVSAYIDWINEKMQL

[1] = biological target: T2, Chymotrypsin-C (Homo sapiens) (UniProt Q99895); experiment: Inactivation efficiency (I/E) was determined by incubating different ratios of pyrone and […] for 18 hr and then assaying the surviving enzyme activity; NI=No inactivation
T2 sequence (whole entry): T1 sequence (Q99895 whole entry)

[2] = biological target: T2, Chymotrypsin-C (Homo sapiens)
Description: Inactivation rate constant (kinact) was determined by exposing Chymotrypsinogen to different concentrations of the purine and periodically diluting aliquots into an assay medium containing one of the chromogenic substrates; NI=No inactivation

[3] = biological target: T2, Chymotrypsin-C (Homo sapiens); experiment: Inactivation rate constant (kinact) was determined by exposing chymotrypsin to different concentrations of the […] and periodically diluting aliquots into an assay medium containing one of the […]
[4] = biological target: T2, Chymotrypsin-C (Homo sapiens); remark: listed apart in the source
Description: Inactivation efficiency (I/E) was determined by incubating different ratios of pyrone and chymotrypsin for 18 h and then assaying the surviving Chymotrypsinogen enzyme activity

[5] = biological target: T2, Chymotrypsin-C (Homo sapiens); remark: listed apart in the source
Description: Inactivation efficiency (I/E) was determined by incubating different ratios of pyrone and chymotrypsin for 18 hr and then assaying the surviving enzyme activity; NI=No inactivation

Ki (Chymotrypsin-C)	K inact [3] [min⁻¹]	I/E [4]	Structure (SMILES)	I/E [1]	K inact [2]	I/E [5]
Weak inhibition	–	–	Cc1oc(=O)c(Cc2cccc3ccccc23)cc1CCl	No inactivation	No inactivation	–
Weak inhibition	0.085	1.38	O=c1occ(CCl)cc1Cc1cccc2ccccc12	–	–	–

Structure (SMILES)	Ki (Chymotrypsin-C)	K inact [3] [min⁻¹]	I/E [4]	I/E [1]	K inact [2]	I/E [5]
O=c1occ(CCl)cc1CCl	Weak inhibition	–	–	–	No inactivation	No inactivation
